This is an account of results in paper PMC5540273, “Progress towards a public chemogenomic set for protein kinases and a call for contributions” (PLoS ONE, 2017).

Common to all, as to assay: KINOMEscan competition binding
For one assay, the target named is ABL1-nonphosphorylated (Homo sapiens, UniProt P00519). To be noted: read-out: %Inh ABL1-nonphosphorylated.
In the next assay the target is ACVRL1 (Homo sapiens, UniProt P37023). Conditions: read-out: %Inh ACVRL1.
For another assay, the target named is AMPK-alpha1 (Homo sapiens, UniProt Q13131). To be noted: read-out: %Inh AMPK-alpha1.
The target in another assay is CAMK2G (Homo sapiens, UniProt Q13555). To be noted: read-out: %Inh CAMK2G.
The target in the next assay is CDK3 (Homo sapiens, UniProt Q00526). Conditions: read-out: %Inh CDK3.
The target of another assay is CDK7 (Homo sapiens, UniProt P50613). Conditions: read-out: %Inh CDK7.
In another assay the target is DMPK2 (Homo sapiens, UniProt Q6DT37). Conditions: read-out: %Inh DMPK2.
A further assay deals with T1, ERK8 (Homo sapiens, UniProt Q8TD08).
T1 sequence (Q8TD08 1-544): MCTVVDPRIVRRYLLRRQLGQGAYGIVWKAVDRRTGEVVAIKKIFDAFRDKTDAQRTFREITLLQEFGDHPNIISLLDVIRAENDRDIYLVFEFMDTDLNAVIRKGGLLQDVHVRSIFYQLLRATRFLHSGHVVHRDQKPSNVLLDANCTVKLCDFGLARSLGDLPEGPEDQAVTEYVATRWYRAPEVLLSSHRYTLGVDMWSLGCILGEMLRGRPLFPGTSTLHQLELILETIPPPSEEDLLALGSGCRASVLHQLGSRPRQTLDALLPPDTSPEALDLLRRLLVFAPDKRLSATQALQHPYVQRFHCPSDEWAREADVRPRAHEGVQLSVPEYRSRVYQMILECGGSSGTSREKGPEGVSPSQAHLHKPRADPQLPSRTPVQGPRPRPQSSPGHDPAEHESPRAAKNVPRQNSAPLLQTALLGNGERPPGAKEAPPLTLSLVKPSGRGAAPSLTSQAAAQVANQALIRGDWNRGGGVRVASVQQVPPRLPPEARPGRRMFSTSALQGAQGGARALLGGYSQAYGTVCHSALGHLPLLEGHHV
Conditions: read-out: %Inh ERK8.

The next assay concerns the target FAK (Homo sapiens, UniProt Q05397). To be noted: read-out: %Inh FAK.
The target of another assay is T2, IKK-epsilon (Homo sapiens, UniProt Q14164).
T2 sequence (Q14164 1-716): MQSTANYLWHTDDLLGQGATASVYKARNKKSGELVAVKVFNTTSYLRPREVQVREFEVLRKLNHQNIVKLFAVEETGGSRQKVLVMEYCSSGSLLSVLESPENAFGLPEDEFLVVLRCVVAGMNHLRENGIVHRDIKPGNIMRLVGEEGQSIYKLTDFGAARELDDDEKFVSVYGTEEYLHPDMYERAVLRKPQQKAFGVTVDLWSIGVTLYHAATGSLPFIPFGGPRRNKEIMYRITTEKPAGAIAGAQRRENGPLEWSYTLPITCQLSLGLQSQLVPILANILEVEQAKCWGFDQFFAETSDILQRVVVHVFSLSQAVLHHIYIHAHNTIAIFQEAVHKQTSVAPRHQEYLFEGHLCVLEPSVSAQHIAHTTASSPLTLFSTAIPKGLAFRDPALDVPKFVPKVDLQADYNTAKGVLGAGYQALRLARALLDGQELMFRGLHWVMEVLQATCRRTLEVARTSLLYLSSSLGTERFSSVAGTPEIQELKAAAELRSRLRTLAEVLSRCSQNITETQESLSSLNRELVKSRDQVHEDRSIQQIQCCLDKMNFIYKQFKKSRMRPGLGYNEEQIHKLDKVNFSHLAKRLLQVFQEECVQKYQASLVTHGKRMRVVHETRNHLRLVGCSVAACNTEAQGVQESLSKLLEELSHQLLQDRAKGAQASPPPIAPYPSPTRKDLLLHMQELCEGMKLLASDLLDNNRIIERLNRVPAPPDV
Conditions: read-out: %Inh IKK-epsilon.

Another assay has as its target JNK1 (Homo sapiens, UniProt P45983). To be noted: read-out: %Inh JNK1.

Molecules are shown by their SMILES.

Sequence of JNK1 (P45983 whole entry): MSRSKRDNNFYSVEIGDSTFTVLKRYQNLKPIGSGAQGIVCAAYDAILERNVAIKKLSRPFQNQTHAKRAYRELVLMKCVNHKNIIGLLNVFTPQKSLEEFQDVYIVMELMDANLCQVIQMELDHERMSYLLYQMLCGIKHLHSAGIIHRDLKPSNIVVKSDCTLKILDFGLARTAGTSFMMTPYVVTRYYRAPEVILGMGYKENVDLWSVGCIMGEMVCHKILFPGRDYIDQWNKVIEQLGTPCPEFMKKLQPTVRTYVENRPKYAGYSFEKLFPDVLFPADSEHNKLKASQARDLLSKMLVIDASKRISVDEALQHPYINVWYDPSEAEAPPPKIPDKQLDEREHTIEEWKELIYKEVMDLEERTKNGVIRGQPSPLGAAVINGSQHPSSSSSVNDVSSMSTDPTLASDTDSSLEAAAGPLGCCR
Sequence of ABL1-nonphosphorylated (P00519 whole entry): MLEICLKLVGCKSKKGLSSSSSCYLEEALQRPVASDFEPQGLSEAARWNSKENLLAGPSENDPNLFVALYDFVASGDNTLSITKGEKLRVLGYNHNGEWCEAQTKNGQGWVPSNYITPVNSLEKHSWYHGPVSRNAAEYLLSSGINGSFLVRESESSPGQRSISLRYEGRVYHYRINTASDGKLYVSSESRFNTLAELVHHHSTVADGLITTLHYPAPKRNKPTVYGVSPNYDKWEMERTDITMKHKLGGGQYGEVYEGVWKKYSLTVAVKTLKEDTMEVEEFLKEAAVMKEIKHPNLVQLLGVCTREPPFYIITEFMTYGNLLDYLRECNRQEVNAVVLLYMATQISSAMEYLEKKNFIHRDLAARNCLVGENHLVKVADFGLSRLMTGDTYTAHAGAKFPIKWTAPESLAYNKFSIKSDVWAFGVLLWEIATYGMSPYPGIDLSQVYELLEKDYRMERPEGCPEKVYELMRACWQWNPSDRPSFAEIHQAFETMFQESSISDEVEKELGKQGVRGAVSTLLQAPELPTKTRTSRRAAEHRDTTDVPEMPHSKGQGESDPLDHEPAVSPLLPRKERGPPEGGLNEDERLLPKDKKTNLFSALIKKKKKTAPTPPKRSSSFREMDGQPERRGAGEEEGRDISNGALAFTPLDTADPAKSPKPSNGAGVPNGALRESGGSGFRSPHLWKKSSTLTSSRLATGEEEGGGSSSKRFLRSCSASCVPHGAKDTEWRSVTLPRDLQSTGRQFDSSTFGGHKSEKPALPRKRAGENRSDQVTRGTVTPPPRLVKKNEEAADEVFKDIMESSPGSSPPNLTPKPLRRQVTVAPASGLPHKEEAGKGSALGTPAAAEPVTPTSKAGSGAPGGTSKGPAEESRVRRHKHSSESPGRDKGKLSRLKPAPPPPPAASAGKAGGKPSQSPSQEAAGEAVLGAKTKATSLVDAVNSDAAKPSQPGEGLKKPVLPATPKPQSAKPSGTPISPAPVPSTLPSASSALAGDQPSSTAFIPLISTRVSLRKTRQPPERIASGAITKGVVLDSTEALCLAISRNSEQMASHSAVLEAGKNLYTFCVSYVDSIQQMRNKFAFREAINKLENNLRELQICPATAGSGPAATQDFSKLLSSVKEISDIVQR
Sequence of DMPK2 (Q6DT37 whole entry): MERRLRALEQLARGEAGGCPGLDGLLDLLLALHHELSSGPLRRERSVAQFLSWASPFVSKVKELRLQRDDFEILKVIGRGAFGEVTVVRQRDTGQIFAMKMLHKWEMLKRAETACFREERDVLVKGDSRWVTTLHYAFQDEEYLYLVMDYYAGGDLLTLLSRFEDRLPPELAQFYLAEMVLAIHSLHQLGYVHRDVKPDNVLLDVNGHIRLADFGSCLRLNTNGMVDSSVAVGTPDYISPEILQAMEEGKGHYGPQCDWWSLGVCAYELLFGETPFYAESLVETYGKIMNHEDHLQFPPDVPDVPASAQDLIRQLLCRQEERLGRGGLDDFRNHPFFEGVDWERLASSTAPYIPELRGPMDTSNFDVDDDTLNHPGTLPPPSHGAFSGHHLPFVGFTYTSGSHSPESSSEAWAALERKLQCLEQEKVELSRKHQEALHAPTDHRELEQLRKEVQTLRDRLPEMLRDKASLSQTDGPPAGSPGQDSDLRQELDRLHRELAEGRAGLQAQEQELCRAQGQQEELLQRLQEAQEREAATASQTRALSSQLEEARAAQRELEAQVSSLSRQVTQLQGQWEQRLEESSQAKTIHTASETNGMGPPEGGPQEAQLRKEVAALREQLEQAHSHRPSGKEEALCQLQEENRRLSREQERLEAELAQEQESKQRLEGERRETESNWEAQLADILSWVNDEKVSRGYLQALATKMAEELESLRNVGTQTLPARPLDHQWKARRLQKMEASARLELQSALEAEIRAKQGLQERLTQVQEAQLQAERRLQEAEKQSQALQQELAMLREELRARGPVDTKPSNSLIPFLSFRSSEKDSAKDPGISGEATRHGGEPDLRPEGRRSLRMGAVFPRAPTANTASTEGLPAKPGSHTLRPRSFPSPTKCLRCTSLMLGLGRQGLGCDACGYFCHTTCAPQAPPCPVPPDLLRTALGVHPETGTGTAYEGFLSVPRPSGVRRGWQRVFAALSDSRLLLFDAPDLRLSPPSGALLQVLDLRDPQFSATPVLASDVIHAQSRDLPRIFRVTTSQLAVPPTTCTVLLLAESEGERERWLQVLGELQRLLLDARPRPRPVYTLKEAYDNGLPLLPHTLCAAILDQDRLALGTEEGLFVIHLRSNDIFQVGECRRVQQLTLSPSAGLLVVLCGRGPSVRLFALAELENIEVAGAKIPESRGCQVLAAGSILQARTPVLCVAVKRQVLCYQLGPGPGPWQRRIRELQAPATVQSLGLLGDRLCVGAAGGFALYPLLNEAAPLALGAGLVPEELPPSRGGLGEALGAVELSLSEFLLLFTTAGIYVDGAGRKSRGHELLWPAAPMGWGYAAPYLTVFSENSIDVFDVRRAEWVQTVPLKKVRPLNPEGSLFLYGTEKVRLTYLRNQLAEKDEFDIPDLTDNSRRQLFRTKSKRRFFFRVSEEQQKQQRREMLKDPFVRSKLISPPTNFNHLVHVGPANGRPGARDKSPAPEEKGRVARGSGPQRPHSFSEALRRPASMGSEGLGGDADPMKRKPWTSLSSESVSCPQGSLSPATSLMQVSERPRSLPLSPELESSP
Sequence of CAMK2G (Q13555 whole entry): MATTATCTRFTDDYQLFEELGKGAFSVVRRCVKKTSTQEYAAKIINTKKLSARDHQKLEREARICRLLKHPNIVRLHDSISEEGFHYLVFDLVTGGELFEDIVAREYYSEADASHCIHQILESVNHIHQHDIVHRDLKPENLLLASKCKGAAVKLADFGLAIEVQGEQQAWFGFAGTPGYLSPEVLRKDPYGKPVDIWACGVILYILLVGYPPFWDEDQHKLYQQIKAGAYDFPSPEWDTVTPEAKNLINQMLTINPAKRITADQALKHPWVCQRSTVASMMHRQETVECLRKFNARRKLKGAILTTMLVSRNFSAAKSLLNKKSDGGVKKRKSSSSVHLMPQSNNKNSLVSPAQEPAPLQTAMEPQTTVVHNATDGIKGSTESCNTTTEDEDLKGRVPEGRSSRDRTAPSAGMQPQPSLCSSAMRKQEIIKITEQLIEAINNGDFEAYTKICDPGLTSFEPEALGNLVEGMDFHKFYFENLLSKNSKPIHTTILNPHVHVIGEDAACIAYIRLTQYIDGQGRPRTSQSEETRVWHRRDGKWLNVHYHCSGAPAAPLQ
Sequence of AMPK-alpha1 (Q13131 whole entry): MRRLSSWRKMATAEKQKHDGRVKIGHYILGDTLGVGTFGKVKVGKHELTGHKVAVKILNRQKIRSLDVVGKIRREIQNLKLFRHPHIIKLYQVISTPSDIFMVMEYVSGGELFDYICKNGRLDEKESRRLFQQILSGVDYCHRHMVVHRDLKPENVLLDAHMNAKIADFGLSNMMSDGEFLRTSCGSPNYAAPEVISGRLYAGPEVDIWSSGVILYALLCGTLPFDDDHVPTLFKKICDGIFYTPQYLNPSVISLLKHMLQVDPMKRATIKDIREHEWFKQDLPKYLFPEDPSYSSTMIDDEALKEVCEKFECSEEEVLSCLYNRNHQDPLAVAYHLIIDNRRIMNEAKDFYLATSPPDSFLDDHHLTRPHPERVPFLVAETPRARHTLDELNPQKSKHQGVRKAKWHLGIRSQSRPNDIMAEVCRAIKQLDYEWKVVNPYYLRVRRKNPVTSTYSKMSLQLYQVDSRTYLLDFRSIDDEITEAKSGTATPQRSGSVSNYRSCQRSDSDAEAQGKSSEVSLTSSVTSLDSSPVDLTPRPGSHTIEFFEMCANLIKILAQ
Sequence of ACVRL1 (P37023 22-503): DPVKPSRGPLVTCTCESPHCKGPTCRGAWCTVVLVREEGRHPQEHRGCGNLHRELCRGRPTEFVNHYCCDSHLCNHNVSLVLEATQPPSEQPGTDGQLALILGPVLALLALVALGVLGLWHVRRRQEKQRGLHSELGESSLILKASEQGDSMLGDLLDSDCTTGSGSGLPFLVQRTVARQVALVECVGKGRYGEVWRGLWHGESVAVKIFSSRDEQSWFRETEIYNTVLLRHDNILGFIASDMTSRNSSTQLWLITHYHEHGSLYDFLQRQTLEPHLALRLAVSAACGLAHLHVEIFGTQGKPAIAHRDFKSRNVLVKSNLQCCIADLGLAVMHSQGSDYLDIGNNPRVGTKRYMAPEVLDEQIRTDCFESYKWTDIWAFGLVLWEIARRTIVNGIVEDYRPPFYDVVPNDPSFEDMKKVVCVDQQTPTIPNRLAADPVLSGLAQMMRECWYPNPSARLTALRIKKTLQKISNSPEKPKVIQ
Sequence of CDK7 (P50613 whole entry): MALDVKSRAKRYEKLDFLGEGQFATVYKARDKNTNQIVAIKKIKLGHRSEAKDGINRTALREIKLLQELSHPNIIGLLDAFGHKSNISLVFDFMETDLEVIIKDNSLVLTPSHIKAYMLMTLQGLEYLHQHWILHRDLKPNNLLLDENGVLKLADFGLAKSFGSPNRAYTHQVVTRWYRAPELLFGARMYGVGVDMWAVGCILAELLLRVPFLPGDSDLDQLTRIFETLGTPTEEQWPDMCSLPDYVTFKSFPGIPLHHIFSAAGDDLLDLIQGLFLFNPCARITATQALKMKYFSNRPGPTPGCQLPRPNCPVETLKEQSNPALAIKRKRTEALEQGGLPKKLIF

As to `COc1cccc(OC)c1C(=O)Nc1cccc(-c2nn3ccccc3c2-c2ccnc(Nc3cccc(F)c3)n2)c1` [UNC10225310A], the inhibition at 1 µM on ABL1-nonphosphorylated was 28%; at ACVRL1, 7%; at AMPK-alpha1, 25%; at CAMK2G, 0%; on CDK3, 0%; on CDK7 it was 22%. The inhibition at 1 µM amounted to 84% on DMPK2; 3% on ERK8; 1% on FAK; 4% at IKK-epsilon; 44% on JNK1.
For the molecule `O=c1cc(N2CCOCC2)nc2n(Cc3cccc(Cl)c3Cl)c(C3CC3)nn12` [UNC10225469A], the inhibition at 1 µM on ABL1-nonphosphorylated was 28%; on ACVRL1, 9%; at AMPK-alpha1, 5%; on CAMK2G it was 0%; on CDK3, 5%; at CDK7, 5%. In addition, the inhibition at 1 µM at DMPK2 came out at 0%; on ERK8 it was 13%; on FAK, 0%; at IKK-epsilon it was 0%; at JNK1, 19%.
In the case of `Cn1cc(-c2cnc(N)c3c(-c4ccc5c(c4)CCN5C(=O)Cc4ccccc4)csc23)cn1` [UNC10225012A], the inhibition at 1 µM is 99.7% on ABL1-nonphosphorylated; 0% at ACVRL1; 17% at AMPK-alpha1; 13% on CAMK2G; 1% on CDK3; 19% at CDK7. The inhibition at 1 µM on DMPK2 amounted to 81%; on ERK8 it was 11%; at FAK, 7%; at IKK-epsilon it was 59%; at JNK1, 13%.
As for `CS(=O)(=O)Cc1ccc(Nc2nccc(-c3c(-c4cccc(NC(=O)C5CCCCC5)c4)nn4ncccc34)n2)cc1` [UNC10225159A], the inhibition at 1 µM came to 8% on ABL1-nonphosphorylated; 0% at ACVRL1; 2% at AMPK-alpha1; 0% on CAMK2G; 0% on CDK3; 6% on CDK7. Further, the inhibition at 1 µM was 35% on DMPK2; 0% at ERK8; 0% on FAK; 32% at IKK-epsilon; 43% on JNK1.
Turning to `Cc1ccc(NC(=O)Nc2cccc(C(F)(F)F)c2)cc1` [UNC10225187A], the inhibition at 1 µM at ABL1-nonphosphorylated is 49%; at ACVRL1 it was 0%; at AMPK-alpha1 it was 0%; on CAMK2G, 4%; on CDK3, 0%; on CDK7, 12%. The inhibition at 1 µM was 0% at DMPK2; 0% on ERK8; 1% on FAK; 0% at IKK-epsilon; 58% on JNK1.
